Test results reported in patent US20130225641A1, “ANTICANCER COMPOUNDS AND PREPARATION METHODS THEREOF” (priority 2010, published 2013).

Assays:
Assay type in all cases: in vivo, nude mice (nu/nu)
[1] = test system: human lung cancer cells (NCI-H23); test: Transplantation model of human lung cancer (NCI-H23) in nude mice; conditions: NCI-H23 subcutaneous in nude mice; oral daily 5 days/week, 3 weeks; ZTP 30 mg/kg, ZTQ 60 mg/kg; lower = stronger
Description: (§1) T-cell deficient nude mice (nu/nu) of 6 weeks old were purchased from Charles River Laboratory, and housed and treated in a sterile environment following Institutional Animal Care & Use Committee Program. 48 mice were respectively subcutaneously inoculated on ribbed belly with 5×10^6 human liver cancer cells (HepG3B), human lung caner cells (NCI-H23), and human colon cancer cells (HCT-116) suspended in 0.2 ml HBSS/matrigel (50:50, V/V). When the tumor grew to have an average diameter of 7-8 mm and a volume of about 100-200 mm^3, 24 mice were picked up, and assigned to treatment groups (16 animals/2 groups), and a control group (8 animals). The 2 treatment groups were administered with the compounds ZTP and ZTQ dissolved in 15% Captsol respectively at a dose of 30 mg/kg and 60 mg/kg, and the control group only received an excipient (15% Captsol).
(§2) The same number of mice of each type was assigned to the control group and the treatment groups with the compounds ZTP and ZTQ respectively.
(§3) The dose schedule of the test compounds in the tumor transplanted nude mice was as follows: the compounds ZTP and ZTQ dissolved in 15% Captsol were daily orally administered as a 200 μl solution containing 0.75 mg of ZTP and 1.5 mg of ZTQ for 5 days/week over 3 consecutive weeks, followed by one-week break; and the control group was only administered with 200 μl of the placebo (15% Captsol) for 3 weeks, followed by 1 week of break. The two groups of animals were housed separately, and allowed to free access to food.
(§4) Evaluation of antitumor effect: the tumor size was measured every 3 or 4 days. The tumor volume was calculated using the equation below: […], in which a denotes the width (the shorter diameter), and b denotes the length (the longer diameter). Relative tumor volume (RTV) of each tumor refers to the ratio of the volume at a specified time to that at the beginning of the treatment. The average RTV for each treatment group was calculated. The antitumor activity was determined by calculating the tumor growth inhibition using a formula below. […]

[2] = Side effects in tumor transplanted nude mice; conditions: during treatment
Description: as §1, §3

[3] = test system: human liver cancer cells (HepG3B); test: Transplantation model of human liver cancer (HepG3B) in nude mice; conditions: HepG3B subcutaneous in nude mice; oral daily 5 days/week, 3 weeks; ZTP 30 mg/kg, ZTQ 60 mg/kg; lower = stronger
Description: as §1, §2, §3, §4

[4] = test system: human colon cancer cells (HCT-116); test: Transplantation model of human colon cancer (HCT-116) in nude mice; conditions: HCT-116 subcutaneous in nude mice; oral daily 5 days/week, 3 weeks; ZTP 30 mg/kg, ZTQ 60 mg/kg; lower = stronger
Description: as §1, §2, §3, §4

| Compound | TGI (T/C×100) [1] [%] | side effect, including the change in body weight [2] | TGI (T/C×100) [3] [%] | TGI (T/C×100) [4] [%] |
| --- | --- | --- | --- | --- |
| CNC(=O)c1cc(Oc2ccc(NC(=O)Nc3ccc(Cl)c(C(F)(F)F)c3)cc2)ccn1 [Sorafenib, reference compound] | 11.25 | relatively large side effect | 14 | 33 |
| N-[4-chloro-3-(trifluoromethyl)phenyl]-[4-(N-methyl-formamide)(4-pyridyloxy)phenyl]-thiourea [ZTP] | – | no obvious side effect | – | – |
